{"source": "patent US5430005A", "about": "“Herbicidal compositions” (Monsanto Company, priority 1991, dated 1995)", "assay": "Natural pH of aqueous solution", "type": "physicochemical"}
{"smiles": "O=C(O)CNCP(=O)(O)O", "note": "[N-phosphonomethylglycine]", "values": [{"measurement": "natural pH of aqueous solution", "result": "~4.7"}]}
